Results published in PubChem BioAssay AID1918995 (Molecular Pharmacology Branch, DTP, NCI, 2023).

System: 324938-238-R-J1-PDC complex spheroid growth, % test/control
Test: Anticancer human tumor 324938-238-R-J1-PDC patient-derived bladder carcinoma cell line growth inhibition [AhR]
Conditions: for IC50: curve of first compound; for viability, T/C: stronger effect = lower value
Method in brief: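 Spheroids combined tumor cells with HUVEC endothelial cells and human MSCs as stroma. AhR antagonists were paired with standard or investigational drugs, each dosed in half-log steps down from near clinical Cmax, or from 10 microM where Cmax was unknown.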

[1] = second compound 0.1 µM, first compound 0.000949 µM
[2] = second compound 0.1 µM, first compound 0.003 µM
[3] = second compound 0.1 µM, first compound 0.00949 µM
[4] = second compound 0.1 µM, first compound 0.03 µM
[5] = second compound 0.1 µM, first compound 0.0949 µM
[6] = second compound 0.1 µM, first compound 0.3 µM
[7] = second compound 0.316 µM, first compound 0.000949 µM
[8] = second compound 0.316 µM, first compound 0.003 µM
[9] = second compound 0.316 µM, first compound 0.00949 µM
[10] = second compound 0.316 µM, first compound 0.03 µM
[11] = second compound 0.316 µM, first compound 0.0949 µM
[12] = second compound 0.316 µM, first compound 0.3 µM
[13] = second compound 1 µM, first compound 0.000949 µM
[14] = second compound 1 µM, first compound 0.003 µM
[15] = second compound 1 µM, first compound 0.00949 µM
[16] = second compound 1 µM, first compound 0.03 µM
[17] = second compound 1 µM, first compound 0.0949 µM
[18] = second compound 1 µM, first compound 0.3 µM
[19] = second compound 3.16 µM, first compound 0.000949 µM
[20] = second compound 3.16 µM, first compound 0.003 µM
[21] = second compound 3.16 µM, first compound 0.00949 µM
[22] = second compound 3.16 µM, first compound 0.03 µM
[23] = second compound 3.16 µM, first compound 0.0949 µM
[24] = second compound 3.16 µM, first compound 0.3 µM
[25] = second compound 10 µM, first compound 0.000949 µM
[26] = second compound 10 µM, first compound 0.003 µM
[27] = second compound 10 µM, first compound 0.00949 µM
[28] = second compound 10 µM, first compound 0.03 µM
[29] = second compound 10 µM, first compound 0.0949 µM
[30] = second compound 10 µM, first compound 0.3 µM
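Note: spheroids exposed to agents for seven days before viability read.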

| SMILES | IC50 (second compound 0.1 µM) [nM] | IC50 (second compound 0.316 µM) [nM] | IC50 (second compound 1 µM) [nM] | IC50 (second compound 3.16 µM) [nM] | IC50 (second compound 10 µM) [nM] | viability, T/C [1] [%] | viability, T/C [2] [%] | viability, T/C [3] [%] | viability, T/C [4] [%] | viability, T/C [5] [%] | viability, T/C [6] [%] | viability, T/C [7] [%] | viability, T/C [8] [%] | viability, T/C [9] [%] | viability, T/C [10] [%] | viability, T/C [11] [%] | viability, T/C [12] [%] | viability, T/C [13] [%] | viability, T/C [14] [%] | viability, T/C [15] [%] | other results |
| --- | --- | --- | --- | --- | --- | --- | --- | --- | --- | --- | --- | --- | --- | --- | --- | --- | --- | --- | --- | --- | --- |
| CC(C)CC(NC(=O)C(Cc1ccccc1)NC(=O)c1cnccn1)B(O)O (stereo not given) + CC(CO)NC(=O)c1cc(-c2ccc(Cl)cc2)nn(-c2cnn(C)c2)c1=O | 1.78 | 1.69 | 1.75 | 1.4 | 1.37 | 89 | 18.1 | 0.1 | 0.06 | 0.07 | 0.21 | 85.8 | 14.3 | 0.09 | 0.06 | 0.07 | 0.16 | 86.2 | 18.1 | 0.13 | viability, T/C [16]: 0.12%; viability, T/C [17]: 0.05%; viability, T/C [18]: 0.17%; viability, T/C [19]: 69.1%; viability, T/C [20]: 13.6%; viability, T/C [21]: 0.13%; viability, T/C [22]: 0.07%; viability, T/C [23]: 0.07%; viability, T/C [24]: 0.17%; viability, T/C [25]: 67.1%; viability, T/C [26]: 14.8%; viability, T/C [27]: 0.23%; viability, T/C [28]: 0.2%; viability, T/C [29]: 0.2%; viability, T/C [30]: 0.32% |
| CCc1c2c(nc3ccc(O)cc13)-c1cc3c(c(=O)n1C2)COC(=O)[C@]3(O)CC + CC(CO)NC(=O)c1cc(-c2ccc(Cl)cc2)nn(-c2cnn(C)c2)c1=O | < 0.949 | < 0.949 | < 0.949 | < 0.949 | < 0.949 | 41.3 | 28.7 | 15.3 | 17.3 | 17.4 | 15.9 | 37.5 | 31 | 17.1 | 16.9 | 15.8 | 18.6 | 43.3 | 29 | 19.6 | viability, T/C [16]: 15.5%; viability, T/C [17]: 16.1%; viability, T/C [18]: 15.3%; viability, T/C [19]: 34%; viability, T/C [20]: 28.9%; viability, T/C [21]: 18.9%; viability, T/C [22]: 14.5%; viability, T/C [23]: 14.6%; viability, T/C [24]: 13.8%; viability, T/C [25]: 36.3%; viability, T/C [26]: 31.8%; viability, T/C [27]: 24.4%; viability, T/C [28]: 17.1%; viability, T/C [29]: 18.6%; viability, T/C [30]: 17% |
